Test results reported in patent US20130225611A1, “Compositions and Methods for Reducing Cancer Cell Proliferation and Modulating Importin-Beta Function” (THE REGENTS OF THE UNIVERSITY OF CALIFORNIA, priority 2011, published 2013).

How the values were obtained:
HeLa cells = assay: HeLa cell viability assay (CellTiter-Glo); assay type: cell-based; details: Homo sapiens, treatment over a 24-hour period
Method: For HeLa cell viability assays to obtain an IC50, 10,000 actively growing HeLa cells per well were transferred to opaque white 96 well tissue culture plates at a final volume of 100 μl per well in DMEM plus 4% fetal bovine serum and 1% penicillin/streptomycin. Cells were allowed to grow at 37° C. for 24 hours. Individual wells were then treated for 12 hours with one of the following conditions: 1% DMSO, 5, 10, 20, 30, 40, 50, 60, 75, 100 μM IPZ. Following this treatment, the media was replaced and cells were treated for another 12 hours under the same conditions. The plates were then allowed to equilibrate to room temperature for 30 min, after which 100 μl of room temperature CellTiter-Glo reagent from the Promega CellTiter-Glo Luminescent Cell Viability Assay kit was added to each well. Plates were shaken for 2 min, incubated at room temperature for 10 min, then read on a luminometer. The average background signal for the plate was subtracted from the value of each individual well, and the resulting values were normalized to the signal level of the DMSO containing well.

bovine tubulin = assay: pure tubulin polymerization and pelleting assay; assay type: biochemical; details: 25 μM bovine tubulin, 5% DMSO, pelleting, SDS PAGE
Method: Xenopus laevis egg extracts were prepared as described by Hannak et al. (2006) Nat. Protoc. 1:2305-2314. For in vitro spindle assembly, Xenopus laevis sperm DNA was added to egg extracts supplemented with rhodamine-labeled tubulin. Asters were formed by addition of 5% DMSO. DNA was stained with Hoechst dye. The formation of microtubule-based structures was assessed using epifluorescence microscopy after a 30-minute room temperature incubation. In vitro microtubule polymerization and pelleting assays were performed by incubating 25 μM bovine tubulin, 1 mM GTP, and 5% DMSO in BRB80 buffer (80 mM PIPES, 1 mM MgCl2, 1 mM EGTA, pH 6.8) at 37° C. for 30 minutes. Polymerized microtubules were pelleted through a sucrose cushion, resuspended, and analyzed by SDS PAGE.

[1] = target: T1, interaction between RanGTP and importin-β (Homo sapiens, UniProt Q14974); assay: CFP-Ran/YFP-importin-β FRET assay; assay type: binding; details: spectrofluorimeter retest
T1 construct: made in house; host or cells: BL21 cells (E. coli)
Method: A reverse chemical genetic high-throughput screen (HTS) was performed to identify compounds that affect the interaction between RanGTP and importin-β using a fluorescence resonance energy transfer (FRET)-based assay with cyan fluorescent protein (CFP)-tagged Ran and yellow fluorescent protein (YFP)-tagged importin-β. These proteins bind one another only when CFP-Ran is guanosine triphosphate (GTP)-bound, which can be detected by changes in FRET (FIG. 1A and FIG. 1B). When CFP-Ran is incubated with RCC1, GTP, and YFP-importin-β, and the mixture is excited with 435 nm fluorescence in a fluorometer, a strong FRET signal is generated, as indicated by a decrease in the fluorescence intensity at 475 nm (the emission wavelength of CFP) and an increase in the fluorescence intensity at 525 nm (the emission wavelength of YFP). No FRET signal is generated if GDP is substituted for GTP, and nucleotide-specific interaction could also be observed biochemically, as S-tagged YFP-importin-β pulls CFP-Ran out of solution only in the presence of GTP. […]
The following reaction buffer was used for all FRET assays, including the high-throughput screen: 1× phosphate buffered saline (PBS), 5% glycerol, 2 mM MgCl2, 1 mM dithiothreitol (DTT), 0.01% NP-40. […] The reaction was excited using a Fluorolog 3 spectrofluorometer with 435 nm fluorescence and the emission was read between 460 nm and 550 nm. […]

## CC(Nc1nc(N2CCCC2)nc2ccccc12)c1ccccc1 (stereo not drawn) [importazole, (1-phenyl-ethyl)-(2-pyrrolidin-1-yl-quinazolin-4-yl)-amine]
HeLa cells
  IC50: ~22.5 µM
Bovine tubulin
  polymerization of pure microtubules: does not Affect Pure Microtubules
[1]
  effect on FRET signal generated by CFP-Ran and YFP-importin-β: reproducibly disrupted the FRET signal
